Test results taken from patent US20230040770A1, “HETEROCYCLIC COMPOUND AND USE THEREOF” (TAKEDA PHARMACEUTICAL COMPANY LIMITED, priority 2019, published 2023).

What was measured:
[1] = target: T1, human orexin type 2 receptor (Homo sapiens, UniProt O43614); assay: Measurement of orexin type 2 receptor agonist activity (calcium indicator fluorescence, CHO cells forcibly expressing human OX2 receptor); type: cell-based; conditions: compound at 3 μM; 0% = DMSO, 100% = orexin A (human) 10 nM
T1 construct: expressed in transfected cells
T1 sequence (O43614 1-444): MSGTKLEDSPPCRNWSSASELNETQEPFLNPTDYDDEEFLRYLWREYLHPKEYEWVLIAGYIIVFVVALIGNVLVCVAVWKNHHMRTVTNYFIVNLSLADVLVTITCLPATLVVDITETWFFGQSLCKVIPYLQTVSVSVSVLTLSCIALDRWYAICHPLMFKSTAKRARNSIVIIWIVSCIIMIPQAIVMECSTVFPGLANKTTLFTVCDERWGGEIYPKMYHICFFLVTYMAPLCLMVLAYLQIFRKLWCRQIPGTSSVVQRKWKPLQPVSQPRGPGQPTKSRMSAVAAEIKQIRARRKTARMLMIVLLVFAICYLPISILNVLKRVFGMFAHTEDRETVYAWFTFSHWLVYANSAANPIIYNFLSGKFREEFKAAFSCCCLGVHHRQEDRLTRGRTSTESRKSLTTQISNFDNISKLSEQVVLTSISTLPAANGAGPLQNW
Outline: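 Agonist response normalised between vehicle (0%) and orexin A at 10 nM final (100%), from kinetic Fluo-4 calcium signals recorded for about 2 min after compound addition. Cells: stable human OX2R CHO clone, dye-loaded 30 min at 37 °C plus 30 min at room temperature.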

[2] = Evaluation of microsome stability in human; type: in vitro ADME; conditions: pH 7.4; in vitro intrinsic metabolic clearance; human liver microsomes 0.2 mg/mL, 1 μmol/L test compound, NADPH-generating system
Method: Human liver microsomes were purchased from Xenotech, LLC (Lenexa, Kans.). An incubation mixture consisted of microsomes in 50 mmol/L KH2PO4—K2HPO4 phosphate buffer (pH 7.4) and 1 μmol/L test compound. The concentration of microsomal protein was 0.2 mg/mL. An NADPH-generating system (5 mmol/L MgCl2, 5 mmol/L glucose-6-phosphate, 0.5 mmol/L beta-NADP+ and 1.5 unit/mL glucose-6-phosphate dehydrogenase) was added to the incubation mixture with a half volume of the reaction mixture to initiate the enzyme reaction. The reaction was terminated 15 and 30 minutes after the initiation of the reaction by mixing the reaction mixture with acetonitrile, followed by centrifugation at 2500 rpm for 10 min. The supernatant was subjected to LC/MS/MS analysis. The metabolic rate constant was calculated as the slope of the remaining rate-time plot. The in vitro intrinsic metabolic clearance was calculated by dividing initial metabolic rate constant by microsomal protein in the incubation mixture.

cynomolgus monkeys = assay: Evaluation of wake-promoting effects in cynomolgus monkeys (EEG/EMG); type: in vivo, cynomolgus monkey; conditions: Macaca fascicularis, po, time spent in wakefulness for 4 h after administration, read-out: Wakefulness time (% of vehicle treatment) (Mean); for response vs control in vivo at 3 mg/kg: 3 mg/kg p.o. at ZT12; for response vs control in vivo at 10 mg/kg: 10 mg/kg p.o. at ZT12
Method: The wake-promoting effects were evaluated by measuring the electroencephalogram (EEG) and electromyogram (EMG) in cynomolgus monkeys. Under isoflurane anesthesia (1-5%, Pfizer Japan Inc., Tokyo, Japan), male cynomolgus monkeys (3-5 years old, Hamri Co., Ltd., Ibaraki, Japan) were surgically implanted with radio-telemetry transmitters (TL10M3-D70-EEE, Data Sciences International Inc., MN, USA). EEG electrodes were screwed into the skull at the parietal area. EMG electrodes were implanted on the cervical muscles. After the surgery, each monkey was given penicillin (100,000 units/head, i.m., Meiji Seika Pharma Co., Ltd., Tokyo, Japan), buprenorphine (0.02 mg/kg, i.m., Otsuka Pharmaceutical Co., Ltd., Tokyo, Japan) and prednisolone (1 mg/kg, s.c., Kyoritsu Seiyaku Co., Ltd., Tokyo, Japan) daily for one week. After at least a 1-month recovery period in home cages, the monkeys were habituated to the recording chamber placed in a soundproof room. EEG and EMG signals were recorded using the telemetry system (Dataquest ART software, Data Sciences International Inc., MN, USA) and the signals were analyzed using SleepSign software (Kissei Comtec Co., Ltd., Nagano, Japan). After confirming long sleep in dark phase in the experimental room, we used animals to examine the wake-promoting effect of compounds.
Oral test compounds (3 or 10 mg/kg) suspended in 0.5% methylcellulose aqueous solution, or vehicle (i.e., 0.5% methylcellulose aqueous solution) was administered orally (p.o.) to monkeys at zeitgeber time 12 (ZT12) in a volume of 5 mL/kg body weight in cross-over design or pre-post design (n=1-4). EEG and EMG recordings were performed for 4 h after the compound administration. The time spent in wakefulness for 4 h after administration (% of vehicle treatment) was calculated by using SleepSign.
Parenteral test compounds (0.1 or 0.3 mg/kg) dissolved in a mixed solution comprising 5% DMSO, 5% Cremophor EL, 20% PEG400 and 70% soluplus (1% (w/v)), or vehicle (i.e., a mixed solution comprising 5% DMSO, 5% Cremophor EL, 20% PEG400 and 70% soluplus (1% (w/v))) was administered subcutaneously (s.c.) to monkeys at ZT12 in a volume of 0.5 mL/kg body weight in a pre-post design (n=1-2). EEG and EMG recordings were performed for 4 h after the compound administration. The time spent in wakefulness for 4 h after administration (% of vehicle treatment) was calculated by using SleepSign.

Row | Compound | OX2R agonist activity (3 μM, %) [1] [%] | microsomal CLint at 1 μmol/L [2] [µL/min/mg] | response vs control in vivo at 3 mg/kg (cynomolgus monkeys) [%] | response vs control in vivo at 10 mg/kg (cynomolgus monkeys) [%]
1 | CCS(=O)(=O)N[C@@H]1[C@H](Cc2cccc(-c3cccc(F)c3)c2F)N(C(=O)[C@H]2C[C@H](F)C2)CC1(F)F [Example 225, N-[(2S,3R)-2-[(2,3′-difluoro[1,1′-biphenyl]-3-yl)methyl]-4,4-difluoro-1-((1r,3S)-3-fluorocyclobutane-1-carbonyl)pyrrolidin-3-yl]ethanesulfonamide] | 96 | 60 | 318 | 
2 | CCS(=O)(=O)N[C@H]1[C@@H](F)CN(C(=O)C2CC2)[C@H]1Cc1cccc(-c2cc(F)cc(F)c2)c1F [Example 236, N-{(2S,3R,4S)-1-(cyclopropanecarbonyl)-4-fluoro-2-[(2,3′,5′-trifluoro[1,1′-biphenyl]-3-yl)methyl]pyrrolidin-3-yl}ethanesulfonamide] | 100 | 67 |  | 716
3 | CCS(=O)(=O)N[C@H]1[C@@H](F)CN(C(=O)[C@H]2CCO2)[C@H]1Cc1cccc(-c2ccccc2)c1F [Example 302, N-[(2S,3R,4S)-4-fluoro-2-[(2-fluoro[1,1′-biphenyl]-3-yl)methyl]-1-((2R)-oxetane-2-carbonyl)pyrrolidin-3-yl]ethanesulfonamide] | 85 | 3 |  | 288
4 | CCS(=O)(=O)N[C@@H]1[C@H](Cc2cccc(-c3cc(F)cc(F)c3)c2F)N(C(=O)[C@H]2C[C@H](F)C2)CC1(F)F [Example 375, N-{(2S,3R)-4,4-difluoro-1-((1r,3S)-3-fluorocyclobutane-1-carbonyl)-2-[(2,3′,5′-trifluoro[1,1′-biphenyl]-3-yl)methyl]pyrrolidin-3-yl}ethanesulfonamide] | 91 | 35 | 396 | 

Second part, led by results:

Row | OX2R agonist activity (3 μM, %) [1] [%] | microsomal CLint at 1 μmol/L [2] [µL/min/mg] | Compound | response vs control in vivo at 3 mg/kg (cynomolgus monkeys) [%] | response vs control in vivo at 10 mg/kg (cynomolgus monkeys) [%]
5 | 93 | 39 | CCS(=O)(=O)N[C@@H]1[C@H](Cc2cccc(-c3cc(F)cc(F)c3)c2F)N(C(=O)[C@H]2C[C@@H](F)C2)CC1(F)F [Example 380, N-{(2S,3R)-4,4-difluoro-1-((1s,3R)-3-fluorocyclobutane-1-carbonyl)-2-[(2,3′,5′-trifluoro[1,1′-biphenyl]-3-yl)methyl]pyrrolidin-3-yl}ethanesulfonamide] | 484 | 
6 | 101 | 16 | CS(=O)(=O)N[C@@H]1[C@H](Cc2cccc(-c3cc(F)cc(F)c3)c2F)N(C(=O)[C@H]2C[C@@H](F)C2)CC1(F)F [Example 433, N-{(2S,3R)-4,4-difluoro-1-(3-fluorocyclobutane-1-carbonyl)-2-[(2,3′,5′-trifluoro[1,1′-biphenyl]-3-yl)methyl]pyrrolidin-3-yl}methanesulfonamide] | 727 | 
